{"source": "patent US20030105045A1", "about": "“Artificial transcriptional factors and methods of use” (priority 2000, published 2003)", "key": {"[1]": {"tested_on": "ATF assay template containing five ATF binding sites in the promoter", "assay": "In vitro run-off transcription assay with HeLa crude nuclear extract, ATF assay template", "type": "biochemical", "settings": "for level/strength of transcriptional activation in words (compared with GAL4-VP16 or basal): ATF assay template", "excerpt": "(§1) Two 26-base oligonucleotides having the sequence of SEQ. ID NO: 9 and SEQ. ID NO: 10 were annealed and ligated to yield a series of double-stranded DNA fragments containing multiple binding sites for triple-helix formation. A fragment containing 5 copies of the site as shown in the duplex of SEQ ID NO: 9 and SEQ ID NO: 10 was purified by agarose gel electrophoresis and inserted into the HindIII restriction site in the polylinker of an embodiment of the G5E4T series of transcription templates.\n(§2) In FIG. 3A, the control template contains […] five GAL4 and five ATF binding sites incorporated in the promoter at −53 and −155 bp relative to the +1 transcription start site, respectively; and in FIG. 3B the ATF assay template contains five ATF binding sites incorporated at −65 bp.\nThe resulting plasmids were linearized by digestion with EcoRI, purified and the linear templates were stored in ultra-pure water at −20° C. The transcription assay was initiated by incubation of 200 ng of linearized transcription templates with ATFs in the binding buffer containing 10 mM Tris pH 8, 40 mM MgCl2 and 100 mM KCl at room temperature for 24 hours. The total volume of binding reaction was 5 microliters. After binding reaction, salt and buffer conditions were adjusted by the addition of 5 microliters of water, 6 microliters of 1×HeLa buffer (20 mM HEPES pH 7.9, 100 mM KCl, 0.2 mM EDTA, 0.5 mM DTT, 20% glycerol) and 5 microliters of HeLa crude nuclear extract (Promega, Madison Wis.). An aliquot of GAL4-VP16 protein (1 microliter total) was added to the control templates and all reactions were pre-incubated for 10 minutes at 30 degrees C. The transcription was initiated by the addition of 1 microliter of a mixture of ribonucleotide triphosphates (ATP, CTP, GTP, 10 mM each) and 0.5 microliters of ^32P-alpha-UTP (NEN, Boston, Mass.). After further incubation at 30° C. for 30 minutes all transcription reactions were terminated by the addition of 100 microliters of stop buffer (0.5 M sodium acetate, 0.2% SDS, 10 mM EDTA, 1 microgram/ml glycogen, 1 microgram/ml Proteinase K). The reactions were vortexed, incubated at 37° C. for 10 minutes, extracted with phenol/chloroform, and precipitated with 250 microliters of ice-cold ethanol. The pellets were dissolved in 20 microliters of standard denaturing formamide/dye mix and were loaded and run on a denaturing 6% polyacrylamide gel.\n(§3) The templates for in vitro transcription were made by inserting 5 direct repeats of a triple helix binding DNA sequence having a sequence of SEQ ID NO: 11 (5′[…]3′) into the Hind III restriction site in the polylinker of the GnE4T series of transcription templates (Lin, Y. S. et al., Cell 5A: 659-664 (1988)). […] The quantitation of signals was performed with Fuji MacBAS software."}, "[2]": {"tested_on": "control template containing five GAL4 binding sites", "assay": "In vitro run-off transcription assay with HeLa crude nuclear extract, control template", "type": "biochemical", "settings": "data not shown", "excerpt": "as §1, §2\nThe resulting plasmids were linearized by digestion with EcoRI, purified and the linear templates were stored in ultra-pure water at −20° C. […]\nas §3"}, "[3]": {"tested_on": "transcription template with 5 copies of ATF binding sites upstream of minimal HSV thymidine kinase promoter driving CAT reporter gene, BHK-21 cells", "assay": "Transient cotransfection CAT reporter assay in BHK-21 cells, template with ATF binding sites", "type": "cell-based", "settings": "50 nM ATFs, 1 microgram plasmid, LipofectAMINE, harvested 48 hours after transfection", "excerpt": "The ability of ATFs to activate transcription in vivo was examined by transient cotransfection assays in BHK-21 tissue culture cells. As a control template, a reporter construct containing the minimal HSV thymidine kinase promoter driving the expression of chloramphenicol acetyl transferase (CAT) reporter gene was used. The transcription template was constructed by incorporating the oligonucleotide with 5 copies of ATF binding sites in between the HindIII and BamHI restriction sites of the polylinker upstream of the control template promoter (FIG. 6A). The transfection mixture contained 1 microgram of the plasmid DNA and 50 nM ATFs. Transfections were performed by using polycationic lipid LipofectAMINE (Life Technologies). Cells were harvested 48 hours after transfection and CAT assays were performed using FAST CAT (Molecular Probes, Inc.) as substrate, and visualized and quantitated on a Fluorimager (Molecular Dynamics). Each reporter construct shown in FIG. 6A was transfected into cells with and without ATF molecules and the activation signal was measured with standard methods."}, "[4]": {"tested_on": "GAL4 DNA-binding domain fusion", "settings": "cited from earlier work"}}, "data": [{"substance": "ATF(29): 22-mer TFO (SEQ ID NO:5), 5′ polyglycol linker, crosslinker-coupled 29 amino acid VP16 peptide (SEQ ID NO:8) (chain 1 ttgtggtgggtggggtgtgggt; chain 2 CGSDALDDFDLDMLGSDALDDFDLDMLGS; polyglycol linker, crosslinker conjugation; synthetic composition useful as artificial transcriptional factor)", "values": [{"measurement": "level/strength of transcriptional activation in words (compared with GAL4-VP16 or basal)", "setting": "[1]; FIG. 4 and FIG. 5", "value": "comparable to the level that could be obtained with GAL4-VP16"}, {"measurement": "level/strength of transcriptional activation in words (compared with GAL4-VP16 or basal)", "setting": "[1]; FIG. 4 and FIG. 5, listed as ATF", "value": "equal to, if not higher than"}, {"measurement": "ATF concentrations at which these levels of activation (30-40 fold) are obtained", "setting": "[1]; further increase in concentration leads to diminishing activation", "value": "2 to 40", "unit": "nM"}, {"measurement": "activation of transcription above basal level", "setting": "[1]; linearized template with five ATF binding sites, quantitation of 250 base RNA transcript", "value": "30-40 fold"}, {"measurement": "activation of transcription from control templates or other templates lacking ATF binding sites", "setting": "[2]", "value": "does not activate transcription"}, {"measurement": "transcriptional activation above the basal level", "setting": "[3]", "value": 5, "unit": "fold"}]}, {"substance": "CGSDALDDFDLDML (synthetic composition useful as artificial transcriptional factor) [14-mer peptide derived from VP16]", "values": [{"measurement": "activity when fused to the GAL4 DNA binding domain through recombinant DNA techniques", "setting": "[4]; Seipel et al.", "value": "inactive"}]}, {"substance": "CGSDALDDFDLDMLGSDALDDFDLDMLGS (synthetic composition useful as artificial transcriptional factor) [SEQ ID NO: 8]", "values": [{"measurement": "activity retained relative to full-length VP 16 when fused to the GAL4 DNA-binding domain", "setting": "[4]; Seipel et al. 1992, Nyanguile et al. 1997", "value": "about 70%"}]}]}
